Reference: ChEMBL document CHEMBL1143900, “Tetrazole-biarylpyrazole derivatives as cannabinoid CB1 receptor antagonists” (Bioorg Med Chem Lett, 2008)

Columns and labels:
[1] = biological target: Cannabinoid receptor 1 (Rattus norvegicus, UniProt P20272); experiment: Inhibition of cannabinoid CB1 receptor in Sprague-Dawley rat brain
[2] = biological target: Cannabinoid receptor 2 (Homo sapiens, UniProt P34972); experiment: Displacement of [3H]WIN-55212-2 from human cannabinoid CB2 receptor expressed in CHO cells; format: cell-based
[3] = Selectivity ratio of IC50 for Sprague-Dawley rat CB1 receptor over IC50 for human CB2 receptor

Chain of Cannabinoid receptor 2 (P34972 whole entry): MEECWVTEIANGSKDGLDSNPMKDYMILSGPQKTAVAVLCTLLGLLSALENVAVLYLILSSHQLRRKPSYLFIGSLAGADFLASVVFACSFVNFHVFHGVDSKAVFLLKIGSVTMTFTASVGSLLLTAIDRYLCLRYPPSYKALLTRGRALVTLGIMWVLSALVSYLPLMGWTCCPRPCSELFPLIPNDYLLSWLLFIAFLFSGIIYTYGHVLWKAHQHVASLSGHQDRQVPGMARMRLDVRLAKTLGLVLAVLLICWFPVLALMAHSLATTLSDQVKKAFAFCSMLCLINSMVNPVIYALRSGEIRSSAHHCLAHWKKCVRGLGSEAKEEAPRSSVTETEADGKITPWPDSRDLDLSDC
Chain of Cannabinoid receptor 1 (P20272 whole entry): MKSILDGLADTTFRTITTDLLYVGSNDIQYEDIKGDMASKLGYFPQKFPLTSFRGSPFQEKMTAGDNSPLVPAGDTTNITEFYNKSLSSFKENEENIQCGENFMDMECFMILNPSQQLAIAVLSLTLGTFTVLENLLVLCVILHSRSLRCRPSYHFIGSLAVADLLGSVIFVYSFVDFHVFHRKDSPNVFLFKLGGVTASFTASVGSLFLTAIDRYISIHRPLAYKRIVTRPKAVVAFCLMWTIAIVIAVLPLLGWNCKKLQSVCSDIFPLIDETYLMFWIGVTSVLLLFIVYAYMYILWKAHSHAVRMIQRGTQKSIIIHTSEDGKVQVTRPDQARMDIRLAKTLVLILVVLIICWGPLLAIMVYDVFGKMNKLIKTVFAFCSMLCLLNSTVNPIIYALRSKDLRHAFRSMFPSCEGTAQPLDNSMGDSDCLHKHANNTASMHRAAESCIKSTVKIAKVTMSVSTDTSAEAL

SMILES | IC50 [1] | IC50 [2] | Ratio IC50 [3]
Cc1c(-c2nnn(C)n2)nn(-c2ccc(Cl)cc2Cl)c1-c1ccc(Cl)cc1 | > 1000 nM |  | 
CCCCn1nnnc1-c1nn(-c2ccc(Cl)cc2Cl)c(-c2ccc(Cl)cc2)c1C | 87.8 nM |  | 
Cc1c(-c2nnnn2C(C)(C)C)nn(-c2ccc(Cl)cc2Cl)c1-c1ccc(Cl)cc1 | 361 nM |  | 
Cc1c(-c2nnnn2C2CCCCCC2)nn(-c2ccc(Cl)cc2Cl)c1-c1ccc(Cl)cc1 | 26.7 nM | 818 nM | 
CCCCCCCCn1nnnc1-c1nn(-c2ccc(Cl)cc2Cl)c(-c2ccc(Cl)cc2)c1C | 47.3 nM |  | 
Cc1c(-c2nnnn2C2CCCC2)nn(-c2ccc(Cl)cc2Cl)c1-c1ccc(Cl)cc1 |  | > 10000 nM | 
CCc1c(-c2nnnn2C2CCCC2)nn(-c2ccc(Cl)cc2Cl)c1-c1ccc(Br)cc1 |  | 1930 nM | 
CCc1c(-c2nnnn2C2CCCC2)nn(-c2ccc(Cl)cc2Cl)c1-c1ccc(Cl)cc1 |  | 840 nM | 
Cc1c(-c2nnnn2-c2ccccc2)nn(-c2ccc(Cl)cc2Cl)c1-c1ccc(Cl)cc1 | 33.8 nM |  | 
Cc1c(-c2nnnn2C2CCCC2)nn(-c2ccc(Cl)cc2Cl)c1-c1ccc(Br)cc1 |  | 4240 nM | 366
Cc1c(-c2nnnn2C2CCCCCC2)nn(-c2ccc(Cl)cc2Cl)c1-c1ccc(Br)cc1 |  | > 10000 nM | 

Now from value to molecule, other results behind:

IC50 [1] | SMILES | IC50 [2] | Ratio IC50 [3]
94.3 nM | Cc1c(-c2nnnn2Cc2ccccc2)nn(-c2ccc(Cl)cc2Cl)c1-c1ccc(Cl)cc1 |  | 
> 1000 nM | CCn1nnc(-c2nn(-c3ccc(Cl)cc3Cl)c(-c3ccc(Cl)cc3)c2C)n1 |  | 
1060 nM | Cc1c(-c2nnnn2C)nn(-c2ccc(Cl)cc2Cl)c1-c1ccc(Cl)cc1 |  | 
50.6 nM | CCCCCCCCn1nnc(-c2nn(-c3ccc(Cl)cc3Cl)c(-c3ccc(Cl)cc3)c2C)n1 |  | 
87.7 nM | CCCCn1nnc(-c2nn(-c3ccc(Cl)cc3Cl)c(-c3ccc(Cl)cc3)c2C)n1 |  | 
